Laboratory results from PMC6906440, “The vertebrate Aqp14 water channel is a neuropeptide-regulated polytransporter” (Communications Biology, 2019).

What was measured:
Assay in all cases: radiolabelled uptake in Xenopus oocytes
Type in all cases: cell-based
[1] = target: T1, SaAqp14 (Sparus aurata, UniProt A0A6B9KHM1); conditions: 1 mM urea, isotonic, pH 7.5; labelled compound; channel transport
T1 construct: full-length cDNA from brain RNA in pT7Ts; Xenopus laevis oocytes (15 ng cRNA); residues 261-276 TQNAMRAKQANKQENN
T1 sequence (A0A6B9KHM1 1-276): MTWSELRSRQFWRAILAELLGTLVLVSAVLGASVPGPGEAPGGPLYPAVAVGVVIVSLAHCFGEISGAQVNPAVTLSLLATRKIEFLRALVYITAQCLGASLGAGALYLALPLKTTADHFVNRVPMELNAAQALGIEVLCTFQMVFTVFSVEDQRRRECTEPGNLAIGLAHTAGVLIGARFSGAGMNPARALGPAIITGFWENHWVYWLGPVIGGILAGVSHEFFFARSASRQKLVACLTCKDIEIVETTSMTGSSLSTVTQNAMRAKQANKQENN

[2] = target: T2, SsAqp14 (Salmo salar, UniProt A0A6B9KBC3); conditions: 1 mM urea, isotonic, pH 7.5; labelled compound; channel transport
T2 construct: full-length cDNA from kidney RNA in pT7Ts; Xenopus laevis oocytes (15 ng cRNA)
T2 sequence (A0A6B9KBC3 1-277): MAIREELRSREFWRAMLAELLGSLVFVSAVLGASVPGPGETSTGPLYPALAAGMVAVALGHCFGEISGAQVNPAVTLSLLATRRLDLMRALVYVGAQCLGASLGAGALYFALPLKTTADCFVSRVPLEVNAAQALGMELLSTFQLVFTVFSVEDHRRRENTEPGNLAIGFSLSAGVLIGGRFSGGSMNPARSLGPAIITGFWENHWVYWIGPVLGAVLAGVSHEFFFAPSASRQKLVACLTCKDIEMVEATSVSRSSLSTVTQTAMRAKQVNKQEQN

[3] = target: T3, DrAqp14 (Danio rerio, UniProt A0A0G2L4D1); conditions: 1 mM urea, isotonic, pH 7.5; labelled compound; channel transport
T3 construct: full-length cDNA from brain RNA in pT7Ts; Xenopus laevis oocytes (15 ng cRNA)
T3 sequence (A0A0G2L4D1 1-277): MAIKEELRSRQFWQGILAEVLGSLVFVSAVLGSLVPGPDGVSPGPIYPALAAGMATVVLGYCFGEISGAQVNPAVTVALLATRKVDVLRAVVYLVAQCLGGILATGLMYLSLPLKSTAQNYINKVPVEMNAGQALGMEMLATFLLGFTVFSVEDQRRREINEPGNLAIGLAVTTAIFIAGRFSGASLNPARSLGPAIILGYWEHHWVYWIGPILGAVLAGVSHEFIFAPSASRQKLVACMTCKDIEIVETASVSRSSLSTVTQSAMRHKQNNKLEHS

[4] = target: T1, SaAqp14; conditions: 1 mM glycerol, isotonic, pH 7.5; labelled compound; channel transport
[5] = target: T2, SsAqp14; conditions: 1 mM glycerol, isotonic, pH 7.5; labelled compound; channel transport
[6] = target: T3, DrAqp14; conditions: 1 mM glycerol, isotonic, pH 7.5; labelled compound; channel transport

Compound | urea uptake [1] | urea uptake [2] | urea uptake [3] | glycerol uptake [4] | glycerol uptake [5] | glycerol uptake [6]
NC(N)=O [urea] | Oocytes injected with SaAqp14 and SsAqp14 are also slightly permeable to glycerol, urea | Oocytes injected with SaAqp14 and SsAqp14 are also slightly permeable to glycerol, urea | oocytes expressing DrAqp14 are highly permeable to urea and hydrogen peroxide | – | – | –
OCC(O)CO [glycerol] | – | – | – | Oocytes injected with SaAqp14 and SsAqp14 are also slightly permeable to glycerol, urea | Oocytes injected with SaAqp14 and SsAqp14 are also slightly permeable to glycerol, urea | as for SaAqp14 and SsAqp14 show a lesser permeability to glycerol and methylamine
